From PMC10175918 (Communications Biology, 2023)
Where two headings read alike, the source gives them in different places.

What was measured:
Experiment in all cases: TGFα-shedding assay-based GPCR screening with chimeric Gα subunit proteins
Type in all cases: cell-based
348 GPCRs [1] = target: T1, 348 GPCRs (Homo sapiens, UniProt O14842); settings: 10µM, Favipiravir 100μM
T1 construct: expressed in transfected cells; host or cells: HEK293A

348 GPCRs [2] = target: T2, 348 GPCRs (Homo sapiens, UniProt O15218); settings: 10µM, Favipiravir 100μM
T2 construct: expressed in transfected cells; host or cells: HEK293A
T2 sequence (O15218 whole entry): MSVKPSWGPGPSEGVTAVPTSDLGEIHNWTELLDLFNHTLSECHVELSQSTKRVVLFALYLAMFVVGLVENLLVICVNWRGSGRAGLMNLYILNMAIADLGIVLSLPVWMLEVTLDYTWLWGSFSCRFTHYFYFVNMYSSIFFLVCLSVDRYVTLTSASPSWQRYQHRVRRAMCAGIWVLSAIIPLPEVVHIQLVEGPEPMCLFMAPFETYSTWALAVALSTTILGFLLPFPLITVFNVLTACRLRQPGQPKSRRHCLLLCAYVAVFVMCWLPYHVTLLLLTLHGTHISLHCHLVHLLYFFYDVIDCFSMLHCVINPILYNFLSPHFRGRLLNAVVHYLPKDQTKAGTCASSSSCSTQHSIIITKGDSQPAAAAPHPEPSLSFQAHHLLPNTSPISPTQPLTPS

348 GPCRs [3] = target: T3, 348 GPCRs (Homo sapiens, UniProt O60883); settings: 10µM, Favipiravir 100μM
T3 construct: expressed in transfected cells; host or cells: HEK293A
T3 sequence (O60883 26-481): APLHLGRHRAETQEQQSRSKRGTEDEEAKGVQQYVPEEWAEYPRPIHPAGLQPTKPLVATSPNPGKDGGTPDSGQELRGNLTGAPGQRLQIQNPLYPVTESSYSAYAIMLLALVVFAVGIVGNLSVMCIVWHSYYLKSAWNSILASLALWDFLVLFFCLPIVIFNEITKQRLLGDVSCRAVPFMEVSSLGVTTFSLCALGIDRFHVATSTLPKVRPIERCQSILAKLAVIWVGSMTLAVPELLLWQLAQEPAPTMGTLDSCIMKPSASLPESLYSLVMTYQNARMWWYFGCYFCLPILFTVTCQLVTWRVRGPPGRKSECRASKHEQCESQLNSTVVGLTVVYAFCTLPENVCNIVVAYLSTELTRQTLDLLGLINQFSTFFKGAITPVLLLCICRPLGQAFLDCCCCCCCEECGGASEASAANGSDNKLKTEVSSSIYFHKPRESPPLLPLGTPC

348 GPCRs [4] = target: T4, 348 GPCRs (Homo sapiens, UniProt P11229)
T4 sequence (P11229 1-460): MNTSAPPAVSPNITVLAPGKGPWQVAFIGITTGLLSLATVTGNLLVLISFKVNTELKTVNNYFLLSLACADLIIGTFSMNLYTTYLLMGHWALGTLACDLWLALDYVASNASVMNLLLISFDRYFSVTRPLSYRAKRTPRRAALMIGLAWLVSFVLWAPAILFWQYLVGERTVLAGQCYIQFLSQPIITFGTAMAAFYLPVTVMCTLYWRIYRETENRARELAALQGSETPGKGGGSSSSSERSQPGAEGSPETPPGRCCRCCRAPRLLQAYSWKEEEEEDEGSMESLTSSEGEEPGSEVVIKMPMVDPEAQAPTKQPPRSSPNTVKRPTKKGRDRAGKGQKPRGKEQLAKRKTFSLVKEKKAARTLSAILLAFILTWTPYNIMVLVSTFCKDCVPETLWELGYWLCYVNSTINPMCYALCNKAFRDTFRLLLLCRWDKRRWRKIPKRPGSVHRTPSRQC

348 GPCRs [5] = target: T5, 348 GPCRs (Homo sapiens, UniProt P25106)
T5 construct: expressed in transfected cells; host or cells: HEK293A
T5 sequence (P25106 whole entry): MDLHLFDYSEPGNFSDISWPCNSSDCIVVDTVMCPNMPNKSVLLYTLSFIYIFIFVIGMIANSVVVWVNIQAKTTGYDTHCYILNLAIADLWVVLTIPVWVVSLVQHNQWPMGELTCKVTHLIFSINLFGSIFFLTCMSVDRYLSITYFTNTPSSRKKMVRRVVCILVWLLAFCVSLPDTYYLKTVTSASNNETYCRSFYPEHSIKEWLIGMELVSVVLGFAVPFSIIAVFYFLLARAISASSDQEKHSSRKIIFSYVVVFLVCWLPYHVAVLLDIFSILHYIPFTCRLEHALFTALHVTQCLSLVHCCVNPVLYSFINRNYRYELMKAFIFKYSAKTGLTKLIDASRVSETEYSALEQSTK

348 GPCRs [6] = target: T6, 348 GPCRs (Homo sapiens, UniProt P32238); settings: 10µM, Favipiravir 100μM
T6 sequence (P32238 1-428): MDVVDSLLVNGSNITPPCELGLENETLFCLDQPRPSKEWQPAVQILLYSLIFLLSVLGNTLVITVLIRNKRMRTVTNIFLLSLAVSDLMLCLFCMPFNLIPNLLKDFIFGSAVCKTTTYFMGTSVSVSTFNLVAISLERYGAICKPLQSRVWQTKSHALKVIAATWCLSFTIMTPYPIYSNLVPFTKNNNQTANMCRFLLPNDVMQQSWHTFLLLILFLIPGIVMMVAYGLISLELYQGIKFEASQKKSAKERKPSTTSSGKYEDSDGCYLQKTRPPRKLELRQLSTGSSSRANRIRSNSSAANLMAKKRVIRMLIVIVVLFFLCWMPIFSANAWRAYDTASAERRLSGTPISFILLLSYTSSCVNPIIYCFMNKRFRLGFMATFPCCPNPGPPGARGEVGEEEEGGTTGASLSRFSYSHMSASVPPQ

348 GPCRs [7] = target: T7, 348 GPCRs (Homo sapiens, UniProt P35367); settings: 10µM, Favipiravir 100μM
T7 construct: expressed in transfected cells; host or cells: HEK293A
T7 sequence (P35367 whole entry): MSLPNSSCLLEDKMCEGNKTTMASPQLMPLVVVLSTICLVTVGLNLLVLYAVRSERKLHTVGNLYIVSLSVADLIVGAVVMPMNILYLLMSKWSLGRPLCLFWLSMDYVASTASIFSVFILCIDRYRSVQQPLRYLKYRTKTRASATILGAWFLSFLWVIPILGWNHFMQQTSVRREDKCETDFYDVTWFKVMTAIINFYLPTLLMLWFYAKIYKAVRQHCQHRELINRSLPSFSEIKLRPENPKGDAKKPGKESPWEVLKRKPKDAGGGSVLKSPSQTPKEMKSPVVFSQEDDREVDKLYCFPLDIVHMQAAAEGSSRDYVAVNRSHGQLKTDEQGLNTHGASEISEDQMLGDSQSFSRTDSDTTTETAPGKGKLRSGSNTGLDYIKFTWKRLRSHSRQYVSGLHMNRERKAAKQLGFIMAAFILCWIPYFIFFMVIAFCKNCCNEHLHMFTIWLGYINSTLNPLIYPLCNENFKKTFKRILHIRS

348 GPCRs [8] = target: T8, 348 GPCRs (Homo sapiens, UniProt P47890); settings: 10µM, Favipiravir 100μM
T8 construct: expressed in transfected cells; host or cells: HEK293A
T8 sequence (P47890 1-313): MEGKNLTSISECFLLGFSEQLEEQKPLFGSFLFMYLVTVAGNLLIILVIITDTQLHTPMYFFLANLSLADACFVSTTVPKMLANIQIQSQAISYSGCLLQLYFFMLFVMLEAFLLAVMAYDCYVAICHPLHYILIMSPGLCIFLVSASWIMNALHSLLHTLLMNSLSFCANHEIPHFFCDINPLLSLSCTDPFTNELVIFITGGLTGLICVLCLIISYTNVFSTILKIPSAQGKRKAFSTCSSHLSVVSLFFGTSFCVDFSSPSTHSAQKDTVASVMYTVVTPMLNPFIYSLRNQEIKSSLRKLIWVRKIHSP

348 GPCRs [9] = target: T9, 348 GPCRs (Homo sapiens, UniProt Q9NYW2); settings: 10µM, Favipiravir 100μM
T9 construct: expressed in transfected cells; host or cells: HEK293A
T9 sequence (Q9NYW2 1-309): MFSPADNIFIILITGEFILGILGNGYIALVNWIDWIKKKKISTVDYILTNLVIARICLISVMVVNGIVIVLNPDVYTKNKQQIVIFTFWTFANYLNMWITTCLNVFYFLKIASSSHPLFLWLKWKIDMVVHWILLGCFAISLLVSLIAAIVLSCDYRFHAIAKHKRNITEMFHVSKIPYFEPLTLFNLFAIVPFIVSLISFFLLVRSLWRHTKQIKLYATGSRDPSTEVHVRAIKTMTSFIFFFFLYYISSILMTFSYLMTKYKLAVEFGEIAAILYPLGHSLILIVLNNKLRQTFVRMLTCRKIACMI

348 GPCRs [10] = target: T10, 348 GPCRs (Homo sapiens, UniProt Q9Y5N1); settings: 10µM, Favipiravir 100μM
T10 construct: expressed in transfected cells; host or cells: HEK293A
T10 sequence (Q9Y5N1 whole entry): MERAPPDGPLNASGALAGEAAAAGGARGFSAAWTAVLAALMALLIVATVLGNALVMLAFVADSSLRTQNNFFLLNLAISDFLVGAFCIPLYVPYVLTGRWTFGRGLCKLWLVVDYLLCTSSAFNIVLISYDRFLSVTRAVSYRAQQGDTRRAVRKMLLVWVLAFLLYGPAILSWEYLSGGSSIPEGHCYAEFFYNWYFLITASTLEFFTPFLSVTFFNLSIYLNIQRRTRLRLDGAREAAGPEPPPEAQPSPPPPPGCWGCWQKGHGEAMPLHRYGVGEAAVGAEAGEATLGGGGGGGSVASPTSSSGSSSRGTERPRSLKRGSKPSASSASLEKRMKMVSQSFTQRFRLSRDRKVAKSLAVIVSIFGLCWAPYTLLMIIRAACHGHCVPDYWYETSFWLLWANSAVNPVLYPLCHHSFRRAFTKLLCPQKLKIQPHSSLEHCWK

[11] = FFA1 (free fatty acid receptor 1), read-out: % GPCR activation compared to TPA
[12] = GPR182 (G protein-coupled receptor 182), read-out: % GPCR activation compared to TPA
[13] = GPR37L1 (G Protein-Coupled Receptor 37 Like 1), read-out: % GPCR activation compared to TPA
[14] = GPCR M1 (Muscarinic acetylcholine receptor M1), read-out: % GPCR activation compared to TPA
[15] = GPCR CXCR7 (chemokine (C-X-C motif) receptor 7), read-out: % GPCR activation compared to TPA
[16] = CCKAR (cholecystokinin A receptor), read-out: % GPCR activation compared to TPA
[17] = H1 (histamine receptor H1), read-out: % GPCR activation compared to TPA
[18] = OR1G1 (olfactory receptor, family 1, subfamily G, member 1), read-out: % GPCR activation compared to TPA
[19] = TAS2R8 (taste receptor, type 2, member 8), read-out: % GPCR activation compared to TPA
[20] = H3 (histamine receptor H3), read-out: % GPCR activation compared to TPA
[21] = read-out: % GPCR activation compared to TPA, FFA1 (free fatty acid receptor 1)
[22] = read-out: % GPCR activation compared to TPA, GPR182 (G protein-coupled receptor 182)
[23] = read-out: % GPCR activation compared to TPA, GPR37L1 (G Protein-Coupled Receptor 37 Like 1)
[24] = read-out: % GPCR activation compared to TPA, GPCR M1 (Muscarinic acetylcholine receptor M1)
[25] = read-out: % GPCR activation compared to TPA, GPCR CXCR7 (chemokine (C-X-C motif) receptor 7)
[26] = read-out: % GPCR activation compared to TPA, CCKAR (cholecystokinin A receptor)
[27] = read-out: % GPCR activation compared to TPA, H1 (histamine receptor H1)
[28] = read-out: % GPCR activation compared to TPA, OR1G1 (olfactory receptor, family 1, subfamily G, member 1)
[29] = read-out: % GPCR activation compared to TPA, TAS2R8 (taste receptor, type 2, member 8)
[30] = read-out: % GPCR activation compared to TPA, H3 (histamine receptor H3)

T1 sequence (O14842 whole entry): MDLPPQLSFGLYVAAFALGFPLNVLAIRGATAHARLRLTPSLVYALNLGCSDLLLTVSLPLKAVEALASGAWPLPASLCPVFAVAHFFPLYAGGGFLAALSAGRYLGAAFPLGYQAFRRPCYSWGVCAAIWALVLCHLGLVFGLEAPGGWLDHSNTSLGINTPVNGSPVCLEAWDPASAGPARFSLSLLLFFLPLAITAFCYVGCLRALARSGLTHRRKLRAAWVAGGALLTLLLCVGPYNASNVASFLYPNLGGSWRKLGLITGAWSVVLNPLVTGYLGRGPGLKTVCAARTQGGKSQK

activation at 10 µM (348 GPCRs [1]; [11]) [%]	activation at 100 µM (348 GPCRs [2]; [12]) [%]	activation at 10 µM (348 GPCRs [3]; [13]) [%]	activation at 10 µM (348 GPCRs [4]; [14]) [%]	activation at 10 µM (348 GPCRs [5]; [15]) [%]	activation at 100 µM (348 GPCRs [6]; [16]) [%]	activation at 10 µM (348 GPCRs [7]; [17]) [%]	activation at 10 µM (348 GPCRs [8]; [18]) [%]	activation at 10 µM (348 GPCRs [9]; [19]) [%]	activation at 100 µM (348 GPCRs [10]; [20]) [%]	Structure (SMILES)	activation at 10 µM (348 GPCRs [1]; [21]) [%]	activation at 100 µM (348 GPCRs [2]; [22]) [%]	activation at 10 µM (348 GPCRs [3]; [23]) [%]	activation at 10 µM (348 GPCRs [4]; [24]) [%]	activation at 10 µM (348 GPCRs [5]; [25]) [%]	activation at 100 µM (348 GPCRs [6]; [26]) [%]	activation at 10 µM (348 GPCRs [7]; [27]) [%]	activation at 10 µM (348 GPCRs [8]; [28]) [%]	activation at 10 µM (348 GPCRs [9]; [29]) [%]	activation at 100 µM (348 GPCRs [10]; [30]) [%]	further results
-14.2	0.124	-2.03	0.618	1.43	-2.84	-5.47	-1.68	0.391	0.59	N#C[C@@]1(c2ccc3c(N)ncnn23)O[C@H](CO)[C@@H](O)[C@H]1O [GS441524]	–	–	–	–	–	–	–	–	–	–	–
-4.93	-0.288	-2.32	–	–	-0.523	0.654	0.965	-0.549	0.315	NC(=O)c1nc(F)cnc1O [favipiravir, 6-fluoro-3-hydroxy-2-pyrazinecarboxamide]	–	–	–	–	–	–	–	–	–	–	activation at 100 µM (348 GPCRs [4]; GPCR M1 (Muscarinic acetylcholine receptor M1), 100μM, read-out: % GPCR activation compared to TPA): 0.788%; activation at 100 µM (348 GPCRs [5]; GPCR CXCR7 (chemokine (C-X-C motif) receptor 7), 100μM, read-out: % GPCR activation compared to TPA): -1.9%
-2.86	0.0693	-1.63	-0.856	-1.56	2.71	-2.24	-3.31	-0.417	-0.295	CC(C)C(=O)OC[C@H]1O[C@@H](n2ccc(NO)nc2=O)[C@H](O)[C@@H]1O [molnupiravir]	–	–	–	–	–	–	–	–	–	–	–
–	–	–	–	–	–	–	–	–	–	CCC(CC)COC(=O)[C@H](C)N[P@](=O)(OC[C@H]1O[C@@](C#N)(c2ccc3c(N)ncnn23)[C@H](O)[C@@H]1O)Oc1ccccc1 [remdesivir]	-6.96	2.44	-2.18	3.01	0.898	1.15	-3.69	-1.69	0.189	0.0878	–
–	–	–	–	–	–	–	–	–	–	CC(C)OC(=O)[C@H](C)N[P@](=O)(OC[C@H]1O[C@@H](n2ccc(=O)[nH]c2=O)[C@](C)(F)[C@@H]1O)Oc1ccccc1 [sofosbuvir]	-1.47	0.0893	-1.91	-0.631	-0.832	-1.34	-0.312	-2.98	0.759	-2.02	–
